Values quoted from earlier work as cited in patent US6761879B1, “Titanium derived compounds, preparation and use thereof” (Sanofi-Synthelabo, priority 1999, dated 2004).

How the values were obtained:
[1] = in particular in aqueous solution
[2] = known from prior art

SMILES: [F][Ti]([F])([F])[F] [titanium tetrafluoride]
- stability [1]: relatively unstable
- pH in aqueous solution: about 1.5
- formation of an amorphous protective layer (glaze) at the surface of the enamel of the tooth [2]: forming an amorphous protective layer
